Test results: US11718622B2, “Heterocyclic adenosine receptor antagonists” (Exelixis, Inc., priority 2020, dated 2023)

Columns and labels:
[1] = target: Adenosine A2B (ADORA2B) receptor (Homo sapiens (Human), UniProt P29275); experiment: ADORA2B Receptor Binding Assay; conditions: radioligand binding, membrane stock
Summary of the method: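 Radioligand competition binding on human A2B receptor membranes, 1 h at room temperature, then filtration through BSA-presoaked GF/C filters and ³H counting by scintillation. Inhibition expressed as % of high control after background subtraction.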

[2] = target: Adenosine A2a (ADORA2A) receptor (Homo sapiens (Human), UniProt P29274); experiment: ADORA2A Receptor Binding Assay; conditions: radioligand binding, membrane stock
Chain of Adenosine A2a (ADORA2A) receptor (P29274 whole entry): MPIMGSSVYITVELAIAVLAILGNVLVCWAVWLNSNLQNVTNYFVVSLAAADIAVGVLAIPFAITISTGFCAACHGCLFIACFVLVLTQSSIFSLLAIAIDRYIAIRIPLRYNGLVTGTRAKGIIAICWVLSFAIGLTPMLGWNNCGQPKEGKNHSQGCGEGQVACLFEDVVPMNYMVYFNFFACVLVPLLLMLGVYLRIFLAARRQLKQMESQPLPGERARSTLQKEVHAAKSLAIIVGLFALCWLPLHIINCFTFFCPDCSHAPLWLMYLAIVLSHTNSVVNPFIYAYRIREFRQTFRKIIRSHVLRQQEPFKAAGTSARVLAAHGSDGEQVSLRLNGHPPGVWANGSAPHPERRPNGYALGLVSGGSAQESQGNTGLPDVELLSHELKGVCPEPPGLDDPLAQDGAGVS
Summary of the method: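 Test compounds incubated with A2a receptor membranes and a ³H-labelled radioligand for 2 hours at room temperature, then filtered through PEI-presoaked GF/C plates and washed. Filter-bound ³H counted by scintillation; % inhibition calculated from background-subtracted signal relative to high control.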

Chain of Adenosine A2B (ADORA2B) receptor (P29275 whole entry): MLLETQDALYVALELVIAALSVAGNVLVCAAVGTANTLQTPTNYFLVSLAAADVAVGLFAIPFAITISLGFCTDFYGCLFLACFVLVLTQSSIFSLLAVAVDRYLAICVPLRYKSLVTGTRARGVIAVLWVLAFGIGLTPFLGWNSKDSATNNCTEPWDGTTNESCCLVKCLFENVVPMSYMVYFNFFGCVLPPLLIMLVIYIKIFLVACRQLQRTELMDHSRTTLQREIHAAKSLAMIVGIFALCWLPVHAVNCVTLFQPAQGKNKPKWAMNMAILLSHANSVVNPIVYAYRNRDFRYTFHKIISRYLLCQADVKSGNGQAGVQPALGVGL

Row | IC50 [1] | IC50 [2] | Structure (SMILES)
1 | 100 to 1000 nM | 100 to 1000 nM | Cc1cn2c(Br)c(N)nc(-c3ccccc3)c2n1 [Compound 203, 5-bromo-2-methyl-8-phenylimidazo[1,2-a]pyrazin-6-amine]
2 | 10 to 100 nM | 10 to 100 nM | Nc1nc(-c2ccccc2)c2nc(C(F)(F)F)cn2c1Cl [Compound 204, 5-chloro-8-phenyl-2-(trifluoromethyl)imidazo[1,2-a]pyrazin-6-amine]
3 | 10 to 100 nM | < 10 nM | CC(=O)Nc1cn2cc(C)nc2c(-c2ccc(C)o2)n1 [Compound 205, N-[2-methyl-8-(5-methylfuran-2-yl)imidazo[1,2-a]pyrazin-6-yl]acetamide]
4 | 100 to 1000 nM | 100 to 1000 nM | Cc1cn2c(Br)c(N)nc(-c3ccc(F)cc3)c2n1 [Compound 206, 5-bromo-8-(4-fluorophenyl)-2-methylimidazo[1,2-a]pyrazin-6-amine]
5 | 100 to 1000 nM | 100 to 1000 nM | Cc1cccc(-c2nc(N)c(Cl)n3cc(C)nc23)c1 [Compound 207, 5-chloro-2-methyl-8-(3-methylphenyl)imidazo[1,2-a]pyrazin-6-amine]
6 | 10 to 100 nM | < 10 nM | Cc1cn2cc(NC(=O)C3CC3)nc(-c3ccco3)c2n1 [Compound 208, N-[8-(furan-2-yl)-2-methylimidazo[1,2-a]pyrazin-6-yl]cyclopropanecarboxamide]
7 | 10 to 100 nM | < 10 nM | Cc1ccc(-c2nc(NC(=O)C3CC3)cn3cc(CO)nc23)o1 [Compound 209, N-[2-(hydroxymethyl)-8-(5-methylfuran-2-yl)imidazo[1,2-a]pyrazin-6-yl]cyclopropanecarboxamide]
8 | 10 to 100 nM | < 10 nM | Cc1ccc(-c2nc(NC(=O)C3CC3)cn3cc(CF)nc23)o1 [Compound 210, N-[2-(fluoromethyl)-8-(5-methylfuran-2-yl)imidazo[1,2-a]pyrazin-6-yl]cyclopropanecarboxamide]
9 | 10 to 100 nM | 10 to 100 nM | CC(=O)Nc1cn2cc(C)nc2c(-c2ccco2)n1 [Compound 211, N-[8-(furan-2-yl)-2-methylimidazo[1,2-a]pyrazin-6-yl]acetamide]
10 | 10 to 100 nM | < 10 nM | CC(C)c1cn2cc(NC(=O)C3CC3)nc(-c3ccco3)c2n1 [Compound 212, N-[8-(furan-2-yl)-2-propan-2-ylimidazo[1,2-a]pyrazin-6-yl]cyclopropanecarboxamide]
11 | 100 to 1000 nM | 10 to 100 nM | CC(C)c1cn2c(Cl)c(N)nc(-c3ccccc3)c2n1 [Compound 213, 5-chloro-8-phenyl-2-propan-2-ylimidazo[1,2-a]pyrazin-6-amine]
12 | 100 to 1000 nM | 100 to 1000 nM | Cc1ccc(-c2nc(N)c(Cl)n3cc(C)nc23)cc1 [Compound 214, 5-chloro-2-methyl-8-(4-methylphenyl)imidazo[1,2-a]pyrazin-6-amine]
13 | 10 to 100 nM | < 10 nM | Cc1ccc(-c2nc(NC(=O)C3CC3)cn3cc(C(C)C)nc23)o1 [Compound 215, N-[8-(5-methylfuran-2-yl)-2-propan-2-ylimidazo[1,2-a]pyrazin-6-yl]cyclopropanecarboxamide]
14 | > 1000 nM | > 1000 nM | Cc1cn2c(Cl)c(N)nc(-c3ccccc3C)c2n1 [Compound 216, 5-chloro-2-methyl-8-(2-methylphenyl)imidazo[1,2-a]pyrazin-6-amine]
15 | 10 to 100 nM | 10 to 100 nM | CNC(=O)Nc1cn2cc(C)nc2c(-c2ccco2)n1 [Compound 217, 1-[8-(furan-2-yl)-2-methylimidazo[1,2-a]pyrazin-6-yl]-3-methylurea]
16 | 100 to 1000 nM | 10 to 100 nM | COC(=O)Nc1cn2cc(C)nc2c(-c2ccco2)n1 [Compound 218, methyl N-[8-(furan-2-yl)-2-methylimidazo[1,2-a]pyrazin-6-yl]carbamate]
17 | 100 to 1000 nM | 10 to 100 nM | CCOC(=O)Nc1cn2cc(C)nc2c(-c2ccco2)n1 [Compound 219, ethyl N-[8-(furan-2-yl)-2-methylimidazo[1,2-a]pyrazin-6-yl]carbamate]
18 | 10 to 100 nM | < 10 nM | CCC(=O)Nc1cn2cc(C)nc2c(-c2ccco2)n1 [Compound 220, N-[8-(furan-2-yl)-2-methylimidazo[1,2-a]pyrazin-6-yl]propanamide]
19 | 10 to 100 nM | < 10 nM | Cc1cn2cc(NC(=O)C(F)F)nc(-c3ccco3)c2n1 [Compound 221, 2,2-difluoro-N-[8-(furan-2-yl)-2-methylimidazo[1,2-a]pyrazin-6-yl]acetamide]
20 | 100 to 1000 nM | 10 to 100 nM | CCCC(=O)Nc1cn2cc(C)nc2c(-c2ccco2)n1 [Compound 222, N-[8-(furan-2-yl)-2-methylimidazo[1,2-a]pyrazin-6-yl]butanamide]
21 | 10 to 100 nM | < 10 nM | CCNC(=O)Nc1cn2cc(C)nc2c(-c2ccco2)n1 [Compound 223, 1-ethyl-3-[8-(furan-2-yl)-2-methylimidazo[1,2-a]pyrazin-6-yl]urea]
22 | > 1000 nM | 100 to 1000 nM | Cc1cn2cc(NS(C)(=O)=O)nc(-c3ccco3)c2n1 [Compound 224, N-[8-(furan-2-yl)-2-methylimidazo[1,2-a]pyrazin-6-yl]methanesulfonamide]
23 | 100 to 1000 nM | 100 to 1000 nM | CCS(=O)(=O)Nc1cn2cc(C)nc2c(-c2ccco2)n1 [Compound 225, N-[8-(furan-2-yl)-2-methylimidazo[1,2-a]pyrazin-6-yl]ethanesulfonamide]
